Read-outs that look alike come from different tables or passages of the source.
Tests used:
human (h) TRPV3 = target: T1, human (h) TRPV3 (Homo sapiens, UniProt Q8NET8); assay: Whole-cell patch clamp, human TRPV3-mediated currents; assay type: cell-based;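 further: compounds tested at concentrations up to 30 µM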
T1 construct: expressed in transfected cells; host or cells: HEK293/TREx, tetracycline-induced
T1 sequence (Q8NET8 1-790): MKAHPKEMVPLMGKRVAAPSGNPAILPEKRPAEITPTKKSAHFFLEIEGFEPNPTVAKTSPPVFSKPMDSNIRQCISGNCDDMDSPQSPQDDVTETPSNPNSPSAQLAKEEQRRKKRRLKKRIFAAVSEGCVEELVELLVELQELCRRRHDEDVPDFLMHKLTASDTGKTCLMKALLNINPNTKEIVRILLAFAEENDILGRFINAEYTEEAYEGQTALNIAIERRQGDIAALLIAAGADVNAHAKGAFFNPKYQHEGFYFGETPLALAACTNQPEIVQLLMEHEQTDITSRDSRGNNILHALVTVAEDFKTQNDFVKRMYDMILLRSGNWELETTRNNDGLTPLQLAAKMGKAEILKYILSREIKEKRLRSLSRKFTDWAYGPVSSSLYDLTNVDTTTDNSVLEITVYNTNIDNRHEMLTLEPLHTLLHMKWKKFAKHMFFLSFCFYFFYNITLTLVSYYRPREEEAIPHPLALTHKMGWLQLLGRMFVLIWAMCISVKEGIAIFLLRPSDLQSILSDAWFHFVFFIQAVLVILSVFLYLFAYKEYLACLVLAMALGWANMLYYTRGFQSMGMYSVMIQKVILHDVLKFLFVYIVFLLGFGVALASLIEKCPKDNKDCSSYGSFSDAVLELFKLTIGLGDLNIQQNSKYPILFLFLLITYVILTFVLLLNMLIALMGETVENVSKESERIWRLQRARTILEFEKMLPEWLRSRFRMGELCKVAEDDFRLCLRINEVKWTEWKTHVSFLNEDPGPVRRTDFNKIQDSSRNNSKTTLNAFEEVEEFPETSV
Description: (§1) Whole-cell patch clamp experiments permit the detection of currents through the TRPV3 channel in the cell line described above. A glass electrode is brought into contact with a single cell and the membrane is then ruptured, permitting control of the voltage of the cell membrane and measurement of currents flowing across the membrane using the amplifier attached to the electrode. A perfusion system permits control of the extracellular solution, including the addition of blockers and activators of the current. The current can be activated by heating this solution to 28° C. or warmer or by addition of 20 μM 2-APB to the solution.
(§2) TRPV3 cells were induced 20-48 hours, removed from growth plates, and replated at low density (to attain good single-cell physical separation) on glass coverslips for measurement. In some cases, cells were grown in low density overnight on glass coverslips. Patch clamp recordings were made in the whole-cell mode with a holding potential of −40 mV. Every 5 seconds, a voltage ramp was applied from −120 to +100 mV, 400 ms in duration. Currents elicited were quantified at −80 mV and +80 mV. The internal solution consisted of 140 mM cesium aspartate, 10 mM EGTA, 2.27 mM MgCl2, 1.91 mM CaCl2 and 10 mM HEPES, pH to 7.2 with KOH; with 50 nM calculated free Ca^2+. External solution was Ringer's solution described above. Upon addition of 2-APB or upon heating of the extracellular solution as described above, TRPV3 current was induced only in TRPV3-expressing cells and not in parental HEK293 TREx cells. […] Removal of the stimulus caused most of the current to go away, and inhibitor addition could still inhibit this current. […]
(§3) P1 refers to the Phase 1 current for human (h) and rat (r) TRPV3, and P2 refers to the Phase 2 current for human (h) and rat (r) TRPV3.

rat (r) TRPV3 = target: T2, rat (r) TRPV3 (Rattus norvegicus, UniProt Q4QYD9); assay: Whole-cell patch clamp, rat TRPV3-mediated currents; assay type: cell-based;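 further: compounds tested at concentrations up to 30 µM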
T2 construct: expressed in transfected cells
T2 sequence (Q4QYD9 1-791): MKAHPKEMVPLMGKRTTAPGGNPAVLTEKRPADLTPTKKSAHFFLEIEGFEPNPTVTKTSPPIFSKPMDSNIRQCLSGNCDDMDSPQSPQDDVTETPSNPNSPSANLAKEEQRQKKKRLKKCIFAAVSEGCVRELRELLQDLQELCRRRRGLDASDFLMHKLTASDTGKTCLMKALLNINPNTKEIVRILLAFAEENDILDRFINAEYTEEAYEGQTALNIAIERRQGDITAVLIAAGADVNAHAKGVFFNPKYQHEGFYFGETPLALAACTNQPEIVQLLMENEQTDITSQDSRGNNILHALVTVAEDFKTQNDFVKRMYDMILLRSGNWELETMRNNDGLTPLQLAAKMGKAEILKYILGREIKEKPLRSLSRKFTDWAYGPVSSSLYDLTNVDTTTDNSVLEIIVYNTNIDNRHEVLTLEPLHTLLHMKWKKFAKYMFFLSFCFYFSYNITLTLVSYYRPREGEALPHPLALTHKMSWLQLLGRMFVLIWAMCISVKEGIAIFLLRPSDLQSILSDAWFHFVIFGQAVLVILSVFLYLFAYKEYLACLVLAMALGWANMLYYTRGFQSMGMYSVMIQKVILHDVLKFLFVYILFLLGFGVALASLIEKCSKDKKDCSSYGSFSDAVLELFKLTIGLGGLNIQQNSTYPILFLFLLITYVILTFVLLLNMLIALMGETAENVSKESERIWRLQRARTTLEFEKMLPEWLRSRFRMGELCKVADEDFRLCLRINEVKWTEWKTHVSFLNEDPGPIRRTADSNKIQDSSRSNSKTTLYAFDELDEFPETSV
Description: as §1, §2, §3

hERG [1] = target: T3, hERG (Homo sapiens, UniProt Q12809); assay: Ion channel selectivity, hERG channel current
Description: (§4) Compounds of interest can be tested against these channels at concentrations up to 30 μM, and the resulting data can be used to estimate IC50 for inhibition of the activity of these other ion channels.

hERG [2] = target: T3, hERG; assay: in vitro
Description: as §4

TRPV3 channel = target: T4, TRPV3 channel (Homo sapiens, UniProt Q8NET8); assay: High-throughput screening assay: Ca2+ rise after 2-APB activation in HEK293/TREx cells inducibly expressing TRPV3; assay type: cell-based; conditions: read-out: IC50 for inhibition of TRPV3 activity; Ca2+ flux, Fura-2, 150 μM 2-APB
T4 construct: expressed in transfected cells; host or cells: HEK293/TREx (Invitrogen), tetracycline-induced
T4 sequence (Q8NET8 1-790): T1 sequence (Q8NET8 1-790)
Description: The assay depends on detection of the rise in intracellular Ca^2+ concentration ([Ca^2+]i) following channel activation in cells inducibly expressing the TRPV3 channel. Ca^2+ rise is quantified with the use of fluorescent Ca^2+ indicators that are loaded into cells and thereafter indicated the [Ca^2+]i. Ca^2+ influx follows activation of the TRPV3 channel. Compounds inhibiting this [Ca^2+]i rise are considered hits for further investigation.
The commercially available HEK293/TREx line (Invitrogen) was stably transfected with a TRPV3 construct and screened by immunostaining to find clones with TRPV3 expression following stimulation with 1 μg/ml tetracycline. Clonal TRPV3-expressing cells were maintained in the growth medium recommended by the manufacturer supplemented with 100 μg/ml hygromycin to promote retention of the TRPV3 construct. After growing to near confluency, cells are plated at a density of ˜25,000 cells/well in 384 well plates in the presence of 1 μg/ml tetracycline, and allowed to grow for 20-30 hrs. A nearly confluent monolayer results. […] These controls defined a screening window, and “hits” were defined as those test compounds inhibiting the fluorescence response by at least 40%.

[3] = Phase 2 inward current, read-out: P2 In (h)
[4] = Phase 2 outward current, read-out: P2 Out (h)
[5] = Phase 1 inward current, read-out: P1 In (r)
[6] = Phase 1 outward current, read-out: P1 Out (r)
[7] = Phase 2 inward current, read-out: P2 In (r)
[8] = Phase 2 outward current, read-out: P2 Out (r)
[9] = Phase 1 inward current, read-out: P1 In (h)
[10] = Phase 1 outward current, read-out: P1 Out (h)

T3 sequence (Q12809 whole entry): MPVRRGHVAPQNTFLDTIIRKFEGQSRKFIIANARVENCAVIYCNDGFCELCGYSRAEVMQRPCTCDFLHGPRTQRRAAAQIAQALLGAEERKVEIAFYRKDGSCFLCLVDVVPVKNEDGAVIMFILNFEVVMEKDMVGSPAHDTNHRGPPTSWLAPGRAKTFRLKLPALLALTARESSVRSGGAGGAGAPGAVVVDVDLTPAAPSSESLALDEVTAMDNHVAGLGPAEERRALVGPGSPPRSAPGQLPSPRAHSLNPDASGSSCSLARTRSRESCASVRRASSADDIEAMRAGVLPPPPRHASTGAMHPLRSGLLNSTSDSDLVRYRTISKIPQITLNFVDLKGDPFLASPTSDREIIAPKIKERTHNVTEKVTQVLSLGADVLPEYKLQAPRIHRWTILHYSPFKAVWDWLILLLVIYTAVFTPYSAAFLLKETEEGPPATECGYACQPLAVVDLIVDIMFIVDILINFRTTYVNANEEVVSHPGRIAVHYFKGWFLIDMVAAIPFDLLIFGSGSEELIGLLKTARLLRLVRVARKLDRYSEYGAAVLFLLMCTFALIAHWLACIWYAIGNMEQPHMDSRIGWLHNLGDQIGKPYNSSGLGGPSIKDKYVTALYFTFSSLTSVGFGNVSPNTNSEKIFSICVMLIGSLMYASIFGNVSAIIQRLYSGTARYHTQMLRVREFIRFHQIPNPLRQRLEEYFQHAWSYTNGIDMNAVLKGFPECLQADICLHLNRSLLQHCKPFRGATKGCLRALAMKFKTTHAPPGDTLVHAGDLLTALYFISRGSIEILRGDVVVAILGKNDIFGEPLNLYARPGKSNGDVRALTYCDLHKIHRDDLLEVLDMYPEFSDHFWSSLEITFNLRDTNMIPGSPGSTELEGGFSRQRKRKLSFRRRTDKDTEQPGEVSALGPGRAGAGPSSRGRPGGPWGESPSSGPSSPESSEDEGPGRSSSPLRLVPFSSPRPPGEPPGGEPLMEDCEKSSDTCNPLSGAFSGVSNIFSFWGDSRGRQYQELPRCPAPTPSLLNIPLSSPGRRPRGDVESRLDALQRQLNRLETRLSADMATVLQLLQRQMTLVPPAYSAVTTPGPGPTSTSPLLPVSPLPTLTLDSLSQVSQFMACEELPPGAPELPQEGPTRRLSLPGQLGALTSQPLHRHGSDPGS

SMILES | IC50 (human (h) TRPV3; [3]) | IC50 (human (h) TRPV3; [4]) | IC50 (rat (r) TRPV3; [5]) | IC50 (rat (r) TRPV3; [6]) | IC50 (rat (r) TRPV3; [7]) | IC50 (rat (r) TRPV3; [8]) | IC50 (hERG [1]) | IC50 (human (h) TRPV3; [9]) | IC50 (human (h) TRPV3; [10]) | IC50 (hERG [2]) | IC50 (TRPV3 channel)
COc1cccc(C=Cc2nc3cnccc3c(=O)n2-c2c(C)cccc2C)c1O [Compound 8] | ≤ 500 nM | ≤ 500 nM | ≤ 500 nM | ≤ 500 nM | ≤ 500 nM | ≤ 500 nM | ≥ 20000 nM | – | – | – | –
CCOc1cccc(/C=C/c2nc3cnccc3c(=O)n2-c2c(C)cccc2C)c1O [Compound 11] | ≤ 500 nM | ≤ 500 nM | ≤ 500 nM | ≤ 500 nM | – | – | ≥ 20000 nM | ≤ 500 nM | ≤ 500 nM | – | –
COc1nccc(/C=C/c2nc3ccccc3c(=O)n2-c2c(C)cccc2C)c1O [Compound 37] | ≤ 500 nM | ≤ 500 nM | ≤ 500 nM | ≤ 500 nM | ≤ 500 nM | ≤ 500 nM | – | ≤ 500 nM | ≤ 500 nM | ≥ 20000 nM | –
Cc1cccc(C)c1-n1c(/C=C/c2cccc3cn[nH]c23)nc2ccccc2c1=O [Compound 40] | – | – | – | – | – | – | – | – | – | – | < 5000 nM
CCOc1cccc(C=Cc2nc3ccccc3c(=O)n2-c2c(C)cccc2C)c1O [Compound 49] | ≤ 500 nM | ≤ 500 nM | ≤ 500 nM | ≤ 500 nM | ≤ 500 nM | ≤ 500 nM | ≥ 20000 nM | ≤ 500 nM | ≤ 500 nM | – | –
CCc1cccc(CC)c1-n1c(/C=C/c2cccc(OC)c2O)nc2ccccc2c1=O [Compound 50] | ≤ 500 nM | ≤ 500 nM | ≤ 500 nM | ≤ 500 nM | ≤ 500 nM | ≤ 500 nM | ≥ 20000 nM | ≤ 500 nM | ≤ 500 nM | – | –
Cc1cccc(C)c1-n1c(/C=C/c2cccc(OC(F)(F)F)c2O)nc2ccccc2c1=O [Compound 55] | ≤ 500 nM | ≤ 500 nM | ≤ 500 nM | ≤ 500 nM | – | – | ≥ 20000 nM | ≤ 500 nM | ≤ 500 nM | – | –
COc1cccc(/C=C/c2nc3ccccc3c(=O)n2-c2c(F)cccc2F)c1O [Compound 56] | ≤ 500 nM | ≤ 500 nM | ≤ 500 nM | ≤ 500 nM | ≤ 500 nM | ≤ 500 nM | – | ≤ 500 nM | ≤ 500 nM | – | –
CCOc1cccc(C=Cc2nc3ccccc3c(=O)n2-c2c(F)cccc2F)c1O [Compound 57] | ≤ 500 nM | ≤ 500 nM | ≤ 500 nM | ≤ 500 nM | – | – | – | ≤ 500 nM | ≤ 500 nM | – | –

Reference: patent US9486455B2, “Compounds for modulating TRPV3 function” (HYDRA BIOSCIENCES, INC., priority 2007, dated 2016)
